Measured values from BindingDB's records for patent US20260049089 (Shanghai Apeiron Therapeutics Company, 2026).

Columns and labels:
[1] = target: T1, GTPase KRas (G12D) (Homo sapiens, UniProt P01116, G12D); assay: KRAS-GCP Protein Assay
Method: 6> Add 5 μL of KRAS solution prepared with Buffer 1 to each well of the high-signal control group and compound test wells; […]. The final concentration of KRAS in the reaction is 5 nM. Incubate at room temperature for 1 hour.7> Add 5 μL of Buffer 2 to each well. Incubate at room temperature for 1 hour.8> Add 5 μL of a solution containing cRAF and AlphaLISA Nickel Acceptor beads prepared with Buffer 2 to each well. Final concentrations in the reaction: 50 nM for cRAF and 20 μg/mL for AlphaLISA Nickel Acceptor beads. Incubate at room temperature for 1 hour.9> Add 5 μL of an AlphaScreen GSH Donor beads solution prepared with Buffer 2 to each well. Final concentration in the reaction: 20 μg/mL. Incubate at room temperature for 1 hour.10> Measure the signal values using an EnVision plate reader.

[2] = target: T1, GTPase KRas (G12D); assay: KRAS-GDP Protein Assay
Method: 6> Add 5 μL of KRAS solution prepared with Buffer 1 to each well of the high-signal control group and compound test wells. Add 5 μL of Buffer 1 to each well of the low-signal control group. The final concentration of KRAS in the reaction is 5 nM (initially 40 nM, optimized to 5 nM). Incubate at room temperature for 1 hour.7> Add 5 μL of a solution containing SOS1 and GTP prepared with Buffer 2 to each well. Final concentrations in the reaction: 50 nM for SOS1 (initially 250 nM) and 125 μM for GTP (initially 625 μM). Incubate at room temperature for 1 hour.8> Add 5 μL of a solution containing cRAF and AlphaLISA Nickel Acceptor beads prepared with Buffer 2 to each well. Final concentrations in the reaction: 50 nM for cRAF and 20 μg/mL for AlphaLISA Nickel Acceptor beads. Incubate at room temperature for 1 hour.9> Add 5 μL of an AlphaScreen GSH Donor beads solution prepared with Buffer 2 to each well. Final concentration in the reaction: 20 μg/mL. Incubate at room temperature for 1 hour.10> Measure the signal values using an EnVision plate reader. Excitation wavelength: 680 nm, Emission wavelength: 615 nm.

[3] = target: T1, GTPase KRas (G12D); assay: KRAS-GTP Protein Assay
Method: 6> Mix the prepared protein solution with the SOS1-GTP solution (at the same concentration as used for the GDP protein assay) in a 1:1 volume ratio. Pre-incubate the mixture at room temperature for 1 hour.7> Add 10 μL of the mixture from Step I to each well of the high-signal control group and compound test wells. For the low-signal control group, add 5 μL of Buffer 1 and 5 μL of the SOS1-GTP mixture to each well. Incubate at room temperature for 1 hour.8> Add 5 μL of a solution containing cRAF and AlphaLISA Nickel Acceptor beads prepared with Buffer 2 to each well. Final concentrations in the reaction: 50 nM for cRAF and 20 μg/mL for AlphaLISA Nickel Acceptor beads. Incubate at room temperature for 1 hour.9> Add 5 μL of an AlphaScreen GSH Donor beads solution prepared with Buffer 2 to each well. Final concentration in the reaction: 20 μg/mL. Incubate at room temperature for 1 hour.10> Measure the signal values using an EnVision plate reader. Excitation wavelength: 680 nm, Emission wavelength: 615 nm.

T1 sequence (P01116 whole entry G12D): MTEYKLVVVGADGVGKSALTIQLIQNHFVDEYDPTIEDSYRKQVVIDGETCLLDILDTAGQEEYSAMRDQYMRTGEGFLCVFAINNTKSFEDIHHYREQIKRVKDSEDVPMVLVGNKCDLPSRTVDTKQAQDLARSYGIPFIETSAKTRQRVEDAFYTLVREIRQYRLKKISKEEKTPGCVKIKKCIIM

Row | Structure (SMILES) | IC50 [1] [nM] | IC50 [2] [nM] | IC50 [3] [nM]
1 | O=C1CCCCc2c(F)ccc3cc(O)cc(c23)-c2c(cc3c(N4CC5CCC(C4)N5)nc(OC[C@@]45CCCN4C[C@H](F)C5)nc3c2F)N1 [US20260049089, Example 4] | 94.4 | 2.2 | 3.5
2 | Oc1cc2c3c(c(F)ccc3c1)CCCCCNc1cc3c(N4CC5CCC(C4)N5)nc(OC[C@@]45CCCN4C[C@H](F)C5)nc3c(F)c1-2 [US20260049089, Example 5] | 232 | 2.06 | 2.63
3 | Oc1cc2c3c(c(F)ccc3c1)CCCCNc1cc3c(N4CC5CCC(C4)N5)nc(OC[C@@]45CCCN4C[C@H](F)C5)nc3c(F)c1-2 [US20260049089, Example 2] | > 1000 | 2.87 | 3.23
4 | CN1CCCCc2c(F)ccc3cc(O)cc(c23)-c2c1cc1c(N3CC4CCC(C3)N4)nc(OC[C@@]34CCCN3C[C@H](F)C4)nc1c2F [US20260049089, Example 3] | > 1000 | 2.31 | 3.24
